Data: US10004739B2, “Methods for treating cancer by inhibiting FGFR3/TACC3 fusion protein” (Astellas Pharma Inc., priority 2012, dated 2018)
Like-named read-outs stand apart in the source and are kept apart here.

Experiments:
[1] = test system: FGFR3-TACC3_v2 expression/NIH3T3 cells; test: Anchorage-independent cell proliferation, spheroid plate, CellTiter-Glo; settings: Mus musculus, NIH3T3, 96 h, read-out: growth inhibition rate (%), v2
Procedure: (§1) The FGFR3-TACC3_v1 expression/NIH3T3 cells were seeded in a 96-well spheroid plate (Sumilon Cell-Tight Spheroid 96U; SUMITOMO BAKELITE CO., LTD.) with D-MEM containing 10% fetal bovine serum, such that the cell count in each well became 1×10^3. Moreover, as a positive control, a well added only with the medium was prepared. […] As a negative control, DMSO as a vehicle of the compound was added thereto at the same concentration (0.1%) as set at the time of adding the compound. Thereafter, the cells were cultured for 4 days at 37° C. in the presence of 5% CO2, and a reagent for cell count measurement (CellTiter-Glo™ Luminescent Cell Viability Assay; Promega Corporation) was added thereto. The resultant was stirred for 20 minutes, and the cell count was measured using a luminometer.
(§2) Moreover, the respective compounds were added such that the final concentration thereof became 100 nM, 10 nM, and 1 nM.

[2] = test system: FGFR3-TACC3_v3 expression/NIH3T3 cells; test: as above; settings: Mus musculus, NIH3T3, 96 h, read-out: growth inhibition rate (%), v3
Procedure: as §1, §2

[3] = test system: FGFR3-TACC3_v1 expression/NIH3T3 cells; test: as above; settings: Mus musculus, NIH3T3, 96 h, read-out: growth inhibition rate (%), v1
Procedure: as §1, §2

[4] = test system: FGFR3-TACC3_v3 (N-FLAG) fusion polypeptide; test: In vitro kinase activity of FGFR3-TACC3_v3 (N-FLAG) fusion polypeptide (HTRF KinEASE-TK, peptide substrate); assay type: biochemical, human; settings: ATP 100 μM
[5] = test system: FGFR3-TACC3_v2 (N-FLAG) fusion polypeptide; test: In vitro kinase activity of FGFR3-TACC3_v2 (N-FLAG) fusion polypeptide (HTRF KinEASE-TK, peptide substrate); assay type: biochemical, human; settings: ATP 100 μM
[6] = test system: FGFR3-TACC3_v1 (N-FLAG) fusion polypeptide; test: In vitro kinase activity of FGFR3-TACC3_v1 (N-FLAG) fusion polypeptide (HTRF KinEASE-TK, peptide substrate); assay type: biochemical, human; settings: ATP 100 μM
RT-112 cells = test: Anchorage-independent proliferation of RT-112 bladder cancer cell line, spheroid plate, CellTiter-Glo; assay type: cell-based; settings: Homo sapiens, read-out: growth inhibition rate (%), RT-112; for inhibition at 0.1 µM: final concentration 100 nM
Procedure: Moreover, as a positive control, a well added only with the medium was prepared. […] As a negative control, DMSO as a vehicle of the compound was added thereto at the same concentration (0.1%) at the time of adding the compound. Thereafter, the cells were cultured for 5 days at 37° C. in the presence of 5% CO2, and a reagent for cell count measurement (CellTiter-Glo™ Luminescent Cell Viability Assay; Promega Corporation) was added thereto. The resultant was stirred for 20 minutes, and the cell count was measured using a luminometer.
as §2

[7] = test system: cell line intrinsically expressing an EML4-ALK fusion gene; settings: Clin. Cancer Res. 2008; 4275-4283; cited from earlier work
[8] = test system: cells expressing FGFR3-TACC3 fusion gene; settings: reported in Science 2012; 337:1231-5; cited from earlier work

C[C@@H](Oc1ccc2[nH]nc(/C=C/c3cnn(CCO)c3)c2c1)c1c(Cl)cncc1Cl [LY2874455, (R)-(E)-2-{4-[2-{5-[1-(3,5-dichloropyridin-4-yl)ethoxy]-1H-indazol-3-yl}vinyl]-1H-pyrazol-1-yl}ethanol, reference compound]
inhibition at 0.01 µM [1]: 90%
inhibition at 0.01 µM [2]: 89%
inhibition at 0.01 µM [3]: 88%
Inhibition against peptide substrate FGFR3-TACC3 v3 ([4]; final concentration 0.1 nM): 3%
Inhibition against peptide substrate FGFR3-TACC3 v3 ([4]; final concentration 1 nM): 57%
Inhibition against peptide substrate FGFR3-TACC3 v3 ([4]; final concentration 10 nM): 83%
Inhibition against peptide substrate FGFR3-TACC3 v2 ([5]; final concentration 0.1 nM): 15%
Inhibition against peptide substrate FGFR3-TACC3 v2 ([5]; final concentration 1 nM): 64%
Inhibition against peptide substrate FGFR3-TACC3 v2 ([5]; final concentration 10 nM): 87%
Inhibition against peptide substrate FGFR3-TACC3 v1 ([6]; final concentration 0.1 nM): 12%
Inhibition against peptide substrate FGFR3-TACC3 v1 ([6]; final concentration 1 nM): 46%
Inhibition against peptide substrate FGFR3-TACC3 v1 ([6]; final concentration 10 nM): 77%

CN1CCN(c2ccc3nc(-c4c(N)c5c(F)cccc5[nH]c4=O)[nH]c3c2)CC1 [Dovitinib, 4-amino-5-fluoro-3-[6-(4-methylpiperazin-1-yl)-1H-benzo[d]imidazol-2-yl]quinoline-2(1H)-one, reference compound]
inhibition at 0.1 µM (RT-112 cells; RT-112, 120 h, Example 16: 2×10^3 cells per well, 5 days): 80%

COc1cc(OC)c(F)c(COc2cnc(Nc3ccc(N4CCN(C)CC4)cc3)nc2)c1F [Compound D, 5-[(2,6-difluoro-3,5-dimethoxybenzyl)oxy]-N-[4-(4-methylpiperazin-1-yl)phenyl]pyrimidin-2-amine]
inhibition at 0.001 µM [1]: 23%
inhibition at 0.01 µM [1]: 79%
inhibition at 0.1 µM [1]: 88%
inhibition at 0.001 µM [2]: 25%
inhibition at 0.01 µM [2]: 79%
inhibition at 0.1 µM [2]: 89%
inhibition at 0.001 µM [3]: 26%
inhibition at 0.01 µM [3]: 84%
inhibition at 0.1 µM [3]: 90%
Inhibition against peptide substrate FGFR3-TACC3 v3 ([4]; final concentration 1 nM): 45%
Inhibition against peptide substrate FGFR3-TACC3 v3 ([4]; final concentration 10 nM): 85%
Inhibition against peptide substrate FGFR3-TACC3 v3 ([4]; final concentration 100 nM): 97%
Inhibition against peptide substrate FGFR3-TACC3 v2 ([5]; final concentration 1 nM): 27%
Inhibition against peptide substrate FGFR3-TACC3 v2 ([5]; final concentration 10 nM): 80%
Inhibition against peptide substrate FGFR3-TACC3 v2 ([5]; final concentration 100 nM): 95%
Inhibition against peptide substrate FGFR3-TACC3 v1 ([6]; final concentration 1 nM): 34%
Inhibition against peptide substrate FGFR3-TACC3 v1 ([6]; final concentration 10 nM): 80%
Inhibition against peptide substrate FGFR3-TACC3 v1 ([6]; final concentration 100 nM): 94%
inhibition at 0.001 µM (RT-112 cells; RT-112, final concentration 1 nM, Example 30: 1×10^3 cells per well, RPMI1640 with 2 mM L-glutamine, otherwise as Example 9): 23%
inhibition at 0.01 µM (RT-112 cells; RT-112, final concentration 10 nM, Example 30: 1×10^3 cells per well, RPMI1640 with 2 mM L-glutamine, otherwise as Example 9): 80%
inhibition at 0.1 µM (RT-112 cells; RT-112, Example 30: 1×10^3 cells per well, RPMI1640 with 2 mM L-glutamine, otherwise as Example 9): 89%

COc1cc(N2CCC(N3CCN(C)CC3)CC2)ccc1Nc1ncc(Cl)c(Nc2ccccc2S(=O)(=O)C(C)C)n1 [TAE684]
growth of the cell [7]: growth of the cell is inhibited
phosphorylation of ALK [7]: phosphorylation is inhibited

CCN(CC)CCCCNc1ncc2cc(-c3cc(OC)cc(OC)c3)c(NC(=O)NC(C)(C)C)nc2n1 [PD173074]
proliferation of cells expressing FGFR3-TACC3 fusion gene [8]: inhibited the proliferation
